Data from patent publication US8592420B2, “Method of treating an anxiety disorder” (Kyowa Hakko Kirin Co., Ltd., priority 2003, dated 2013).

Key:
Type in all cases: in vivo
Mice [1] = experiment: Marble Burying Test in the mouse (Test Example 2)
Protocol: (§1) The method followed that described in Eur. J. Pharmacol., 126, 223-229 (1986) with a slight modification.
(§2) Mice exposed to a novel object (marbles) tend to bury them in the sawdust floor covering.
(§3) Mice were individually placed in transparent plastic cages with 25 colored marbles (diameter 1.5 cm) on 5 cm of the sawdust floor. The cage was covered with a similar cage upturned.
(§4) The number of marbles covered by sawdust (50% or more) was counted at the end of a 30 minute test.
(§5) The test compound or vehicle was administered orally 60 minutes before the test.
Data were analyzed by comparing the result of treated groups with that of a vehicle control group using an unpaired Student's t-test.

Mice [2] = experiment: Marble Burying Test in the mouse, adjunctive treatment with buspirone or fluoxetine (Test Example 7); conditions: for NUMBER OF MARBLES COVERED BY SAWDUST % change from control / NUMBER OF MARBLES COVERED BY SAWDUST mean ± s.e.m.: Table 5; for NUMBER OF MARBLES COVERED BY SAWDUST mean ± s.e.m.: 60 min before test, vehicle 17.1 ± 1.6; for effect of single administration on number of marbles covered by sawdust: single administration: Compound A 1 mg/kg, buspirone 15 mg/kg, fluoxetine 20 mg/kg, po
Protocol: as §1, §2, §3, §4
The test compound or vehicle was administered orally 60 minutes before the test either alone or in combination with buspirone or fluoxetine.
(§6) Data were analyzed by comparing the result of a treated group with that of a vehicle control group using an unpaired Student's t-test.

rat [3] = experiment: Elevated Plus-Maze Test in the rat (Test Example 4)
Protocol: (§7) The method followed that described in Naunyn. Schmied. Arch. Pharmacol., 327, 1-5 (1984) with a slight modification.
(§8) The maze consisted of 4 arms of equal length and width (50×10 cm) arranged in the form of a plus sign (+). Two opposite arms were enclosed by 40 cm high walls (closed arms). The 2 other arms had no walls (open arms). The maze was raised 50 cm above the floor. A rat was placed in the center of the plus-maze and left to explore for 5 minutes. The number of entries into the open and closed arms and the time spent in the open arms was recorded.
The test compound or vehicle was administered orally 60 minutes before the test, respectively.
as §6

rat [4] = experiment: Learned Helplessness in the rat (Test Example 3); conditions: FIG. 1, single treatment p.o. 60 min before test
Protocol: The method followed that described in J. Exp. Psychol., 74, 1-9 (1967) with a slight modification.
Preconditioning with inescapable electric foot shock was given individually to each rat in the shuttle box on day 1. A constant current (1.3 mA) shock generator delivered scrambled, inescapable shocks to the grid floor during 50 minute preconditioning period. Control rats were also individually placed in the identical chamber for 50 minutes, but shock was not given. Conditioned avoidance training session (FR1: buzzer 10 seconds, 0.6 mA foot shock; 5 seconds, interval time; 10 seconds/trial, 15 escape trials) and test session (FR2: 0.6 mA foot shock; 10 seconds, interval time; 0.5 seconds, 0.6 mA foot shock; 10 seconds, interval time; 15 seconds/trial, 15 trials) were performed on day 2 consecutively. FR1 session consisted of 15 trials during which a single shuttle response terminated shock and rats learned how to escape shocks. Subsequent FR2 session consisted of 15 trials during which each rat had to cross from one side of the shuttle box to the other and then crossed back to terminate shock. […]
The ratio of escape response was calculated from the following formula. […]
The ratio of intertrial response is calculated from the following formula. […]
Data were analyzed by comparing the result of a tested group with that of a vehicle control group using a Steel test.

rat [5] = experiment: Elevated Plus-Maze Test in the rat, adjunctive treatment with alprazolam (Test Example 8); conditions: for OPEN ARMS NUMBER OF ENTRIES % change from control / OPEN ARMS TIME SPENT % change from control / OPEN ARMS NUMBER OF ENTRIES mean ± s.e.m. / OPEN ARMS TIME SPENT (sec) mean ± s.e.m.: Table 6; for OPEN ARMS NUMBER OF ENTRIES % change from control / OPEN ARMS TIME SPENT % change from control: single compound 1 mg/kg po; for OPEN ARMS NUMBER OF ENTRIES mean ± s.e.m. / OPEN ARMS TIME SPENT (sec) mean ± s.e.m.: single compound 1 mg/kg po 60 min before test; for OPEN ARMS NUMBER OF ENTRIES mean ± s.e.m.: vehicle 2.3 ± 0.6; for OPEN ARMS TIME SPENT (sec) mean ± s.e.m.: vehicle 37.4 ± 9.5; for effect alone on open arm entries and time spent in open arms: alone at 1 mg/kg po
Protocol: as §7, §8
The test compound or vehicle was administered orally 60 minutes before the test either alone or in combination with alprazolam.
as §6

male rats = experiment: Social Interaction Test in the rat (Test Example 5)
Protocol: The method followed that described in Br. J. Pharmacol., 62, 19-24 (1978) with a slight modification.
A pair of male rats were placed in opposite corners of an open-topped arena (50×50×50 cm) and allowed to interact with each other. The time spent in active social interaction (i.e. sniffing, following, grooming, mounting, crawling under or over the partner) was recorded for a 10 minute session.
The test compound or vehicle was administered orally 60 minutes before the test, with each rat of the same pair receiving the same treatment.
Data were analyzed by comparing the result of a treated group with that of a vehicle control group using an unpaired Student's t-tests.

Mice [6] = experiment: Hole-Board Test in the mouse (Test Example 1)
Protocol: The method followed that described in Arch. Int. Pharmacodyn. Ther., 147, 372-387 (1964) with a slight modification.
Mice were individually placed on a square board (35×35 cm) raised 60 cm above the floor, containing 16 equally spaced holes (25 mm diameter). The number of head-dips occurring during a 5 minute test was counted.
as §5
Data were analyzed by comparing the result of a tested group with that of a vehicle control group using an unpaired Student's t-test.

Male Wistar rats = experiment: Vogel Conflict Test in the rat (Test Example 10); conditions: Table 7; 1 mg/kg po 60 min before test; 5 minutes punished session; vehicle 4.8 ± 1.3 (for C), 5.7 ± 0.8 (for D)
Protocol: The method followed that described in Psychopharmacol., 21, 1-7 (1971) with a slight modification. Male Wistar rats (160-200 g) were deprived of water for 48 hours prior to test session consisting of a 5 minutes period. Each rat was then placed in a test box (25×30×25 cm). The rat was allowed to explore the drinking spout to drink water. When the rat drinks a drip of water, the electric shock (0.16 mA, duration of 0.2 seconds) was delivered from the floor grid. […] The test compound or a vehicle was administered orally 60 minutes before the test, respectively. Data were analyzed by comparing the result of a tested group with that of a vehicle control group using an unpaired Student's t-test.

CCn1c(=O)c2c(nc(/C=C/c3ccc(OC)c(OC)c3)n2C)n(CC)c1=O [Compound A, (E)-8-(3,4-dimethoxystyryl)-1,3-diethyl-7-methylxanthine]
NUMBER OF MARBLES COVERED BY SAWDUST % change from control (Mice [1]; Table 2-A, 3 mg/kg p.o. 60 min before test): −50%
NUMBER OF MARBLES COVERED BY SAWDUST mean ± s.e.m. (Mice [1]; Table 2-A, 3 mg/kg p.o. 60 min before test, 30 minute test, 25 marbles, vehicle 20.9 ± 1.4): 10.5 ± 2.9
NUMBER OF MARBLES COVERED BY SAWDUST % change from control (Mice [2]; Compound A 1 mg/kg po alone): −18%
NUMBER OF MARBLES COVERED BY SAWDUST mean ± s.e.m. (Mice [2]; Compound A 1 mg/kg po alone): 14.1 ± 1.6
effect of single administration on number of marbles covered by sawdust (Mice [2]): no significant effects
OPEN ARMS NUMBER OF ENTRIES mean ± s.e.m. (rat [3]; Table 3-A, 3 mg/kg po 60 min before test, 5 minutes, vehicle 1.9 ± 0.3): 5.4 ± 0.7
OPEN ARMS TIME SPENT (sec) mean ± s.e.m. (rat [3]; Table 3-A, 3 mg/kg po 60 min before test, vehicle 38.9 ± 7.7): 143 ± 20.9 s
escape failure (ratio of escape response, FR2 trial) (rat [4]; 1.25 mg/kg and more): dose-dependently reversed the escape failure
intertrial crossings (ratio of intertrial response, FR2 trial) (rat [4]): did not increase intertrial crossings
OPEN ARMS NUMBER OF ENTRIES % change from control (rat [5]): +65%
OPEN ARMS TIME SPENT % change from control (rat [5]): +48%
OPEN ARMS NUMBER OF ENTRIES mean ± s.e.m. (rat [5]): 3.8 ± 0.8
OPEN ARMS TIME SPENT (sec) mean ± s.e.m. (rat [5]): 55.2 ± 12.1 s
effect alone on open arm entries and time spent in open arms (rat [5]): moderate effect
TIME SPENT IN ACTIVE SOCIAL INTERACTION (sec) mean ± s.e.m. (male rats; Table 4-A, 3 mg/kg po 60 min before test, 10 minute session, vehicle 97.5 ± 8.7): 153 ± 11.2 s
NUMBER OF HEAD-DIPS mean ± s.e.m. (Mice [6]; Table 1-A, 3 mg/kg p.o. 60 min before test, 5 minute test, vehicle 28.6 ± 2.4): 46.7 ± 3.2
NUMBER OF ENTRIES INTO THE 4 QUADRANTS mean ± s.e.m. (Mice [6]; Table 1-A, 3 mg/kg p.o. 60 min before test, vehicle 12.7 ± 0.8): 24.4 ± 1.7

COc1cc(/C=C/c2nc3c(c(=O)n(C)c(=O)n3C)n2C)cc(OC)c1OC [Compound B, (E)-1,3,7-trimethyl-8-(3,4,5-trimethoxystyryl)xanthine]
NUMBER OF MARBLES COVERED BY SAWDUST % change from control (Mice [1]; Table 2-B, 3 mg/kg p.o. 60 min before test): −55%
NUMBER OF MARBLES COVERED BY SAWDUST mean ± s.e.m. (Mice [1]; Table 2-B, 3 mg/kg p.o. 60 min before test, vehicle 20.6 ± 1.1): 9.3 ± 1.9
OPEN ARMS NUMBER OF ENTRIES mean ± s.e.m. (rat [3]; Table 3-B, 1 mg/kg po 60 min before test, vehicle 1.8 ± 0.8): 5.8 ± 0.8
OPEN ARMS TIME SPENT (sec) mean ± s.e.m. (rat [3]; Table 3-B, 1 mg/kg po 60 min before test, vehicle 15.6 ± 8.1): 94.4 ± 15.2 s
TIME SPENT IN ACTIVE SOCIAL INTERACTION (sec) mean ± s.e.m. (male rats; Table 4-B, 3 mg/kg po 60 min before test, vehicle 89.0 ± 5.7): 141 ± 6.8 s
NUMBER OF HEAD-DIPS mean ± s.e.m. (Mice [6]; Table 1-B, 3 mg/kg p.o. 60 min before test, vehicle 30.2 ± 3.9): 43.9 ± 4.2

CC(C)(O)CCN1CCN(c2cc3nc(-c4ccco4)nn3c(N)n2)CC1 [Compound C, 5-amino-2-(2-furyl)-7-[4-(3-hydroxy-3-methylbutyl)piperazinyl][1,2,4]triazolo[1,5-c]pyrimidine]
NUMBER OF MARBLES COVERED BY SAWDUST % change from control (Mice [1]; Table 2-C, 10 mg/kg p.o. 60 min before test, p 0.08): −17%
NUMBER OF MARBLES COVERED BY SAWDUST mean ± s.e.m. (Mice [1]; Table 2-C, 10 mg/kg p.o. 60 min before test, vehicle 20.9 ± 1.1, p 0.08): 17.0 ± 1.6
OPEN ARMS NUMBER OF ENTRIES mean ± s.e.m. (rat [3]; Table 3-C, 30 mg/kg po 60 min before test, vehicle 2.3 ± 0.5, p 0.0503): 4.2 ± 0.8
OPEN ARMS TIME SPENT (sec) mean ± s.e.m. (rat [3]; Table 3-C, 30 mg/kg po 60 min before test, vehicle 26.4 ± 6.6): 55.2 ± 10.7 s
NUMBER OF SHOCKS mean ± s.e.m (Male Wistar rats): 10.5 ± 2.1
TIME SPENT IN ACTIVE SOCIAL INTERACTION (sec) mean ± s.e.m. (male rats; Table 4-C, 30 mg/kg po 60 min before test, vehicle 96.2 ± 8.2): 130 ± 9.7 s
NUMBER OF HEAD-DIPS mean ± s.e.m. (Mice [6]; Table 1-C, 10 mg/kg p.o. 60 min before test, vehicle 30.2 ± 3.9): 46.9 ± 3.4

COCCOc1ccc(N2CCN(CCn3ncc4c3nc(N)n3nc(-c5ccco5)nc43)CC2)cc1 [Compound D, 5-amino-2-(2-furyl)-7-(2-{4-[4-(2-methoxyethoxy)phenyl]piperazinyl}ethyl)pyrazolo[4,3-e]-1,2,4-triazolo[1,5-c]pyrimidine]
NUMBER OF SHOCKS mean ± s.e.m (Male Wistar rats): 10.8 ± 1.6

Cc1nnc2n1-c1ccc(Cl)cc1C(c1ccccc1)=NC2 [alprazolam, reference compound]
OPEN ARMS NUMBER OF ENTRIES % change from control (rat [5]): +91%
OPEN ARMS TIME SPENT % change from control (rat [5]): +53%
OPEN ARMS NUMBER OF ENTRIES mean ± s.e.m. (rat [5]): 4.4 ± 0.9
OPEN ARMS TIME SPENT (sec) mean ± s.e.m. (rat [5]): 57.3 ± 12.8 s
effect alone on open arm entries and time spent in open arms (rat [5]): moderate effect

O=C1CC2(CCCC2)CC(=O)N1CCCCN1CCN(c2ncccn2)CC1 [buspirone]
NUMBER OF MARBLES COVERED BY SAWDUST % change from control (Mice [2]; buspirone 15 mg/kg po alone): −26%
NUMBER OF MARBLES COVERED BY SAWDUST mean ± s.e.m. (Mice [2]; buspirone 15 mg/kg po alone): 12.7 ± 1.8
effect of single administration on number of marbles covered by sawdust (Mice [2]): no significant effects

CNCCC(Oc1ccc(C(F)(F)F)cc1)c1ccccc1 (stereo not drawn) [fluoxetine]
NUMBER OF MARBLES COVERED BY SAWDUST % change from control (Mice [2]; fluoxetine 20 mg/kg po alone): −20%
NUMBER OF MARBLES COVERED BY SAWDUST mean ± s.e.m. (Mice [2]; fluoxetine 20 mg/kg po alone): 13.6 ± 2.5
effect of single administration on number of marbles covered by sawdust (Mice [2]): no significant effects
